Read-outs that look alike come from different tables or passages of the source. *1 amine or outer side, *2 acyl side, *3 side chain or, on linkers, in order; H or OH if unused. Where a SMILES comes first, the peptide text is derived from it. [ ]: non-standard residue; d: D form. The star is where a group is joined. Benzothienyl2CO(5-CF2PO3H2) = O=C(c1cc2cc(C(F)(F)P(=O)(O)O)ccc2s1)*; βAla(N-(4-Br-phenyl)) = O=C(CCN(c1ccc(Br)cc1)[*:1])[*:2]; NHBn(4-(4-Me-thiazol-5-yl)) = Cc1ncsc1-c1ccc(CN*)cc1; NH(CH2)8CO = O=C(CCCCCCCCN[*:1])[*:2]; Hyp = O=C(O)[C@@H]1C[C@@H](O)CN1; Tle = CC(C)(C)[C@H](N)C(=O)O; Ahp = NCCCCCCC(=O)O
Target: T1, STAT6 (Homo sapiens, UniProt P42226)
T1 construct: endogenous in cells; host or cells: MOLM-16, KU-812, SKNO1, MB231, L1236
T1 sequence (P42226 1-847): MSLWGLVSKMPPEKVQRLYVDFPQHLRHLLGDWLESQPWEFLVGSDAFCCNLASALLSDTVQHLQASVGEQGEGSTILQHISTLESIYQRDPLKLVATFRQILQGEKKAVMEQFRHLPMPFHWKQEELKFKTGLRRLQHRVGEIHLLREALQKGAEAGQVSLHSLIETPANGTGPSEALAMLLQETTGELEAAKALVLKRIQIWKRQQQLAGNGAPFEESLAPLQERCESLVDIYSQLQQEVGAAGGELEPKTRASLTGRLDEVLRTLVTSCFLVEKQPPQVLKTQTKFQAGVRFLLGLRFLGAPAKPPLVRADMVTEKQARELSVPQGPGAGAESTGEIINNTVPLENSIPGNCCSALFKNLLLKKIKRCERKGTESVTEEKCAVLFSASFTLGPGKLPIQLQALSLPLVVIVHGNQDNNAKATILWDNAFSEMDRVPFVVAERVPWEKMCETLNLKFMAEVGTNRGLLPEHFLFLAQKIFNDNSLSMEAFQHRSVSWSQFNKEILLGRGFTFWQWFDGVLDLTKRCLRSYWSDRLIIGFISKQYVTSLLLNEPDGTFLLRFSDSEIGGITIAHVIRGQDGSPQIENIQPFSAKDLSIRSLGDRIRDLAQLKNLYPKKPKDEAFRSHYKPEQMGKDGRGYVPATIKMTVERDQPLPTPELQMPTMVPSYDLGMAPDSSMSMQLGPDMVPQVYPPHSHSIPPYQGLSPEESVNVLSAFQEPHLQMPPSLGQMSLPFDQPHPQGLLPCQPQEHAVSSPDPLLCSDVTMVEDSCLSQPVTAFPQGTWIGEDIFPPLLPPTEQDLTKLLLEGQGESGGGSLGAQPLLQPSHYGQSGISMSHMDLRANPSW
Test: Immunoblotting (Western blot) analysis of STAT6 degradation efficiency of degraders in treated cells
Type: cell-based
In short: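 Read-out: fluorescent IRDye 680RD/800CW secondaries imaged on an infrared scanner, with band intensities quantified by densitometry and GAPDH serving as loading control. Samples were RIPA lysates, BCA-normalised, from ~1 million treated cells.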

[1] = MOLM-16 cells, numeric bound, read-out: DC50 S6 MOLM-16
[2] = MOLM-16 cells, class symbols, read-out: DC50 S6 MOLM-16
[3] = L1236 cells, read-out: DC50 S6 L1236
[4] = read-out: DC50 S6 MB231, MB231 cells

SMILES	DC50 [2] [µM]	DC50 [3] [µM]	other results
CC(C)(C)[C@H](NC(=O)c1cc2cc(C(F)(F)P(=O)(O)O)ccc2s1)C(=O)N1C[C@H](OCCCCCC#Cc2cccc3c2CN(C2CCC(=O)NC2=O)C3=O)C[C@H]1C(=O)N1CCO[C@H](c2ccccc2)C1 (stereo partly drawn) [Compound 600, ((2-(((2S)-1-((2S,4R)-4-((7-(2-(2,6-dioxopiperidin-3-yl)-1-oxoisoindolin-4-yl)hept-6-yn-1-yl)oxy)-2-((R)-2-phenylmorpholine-4-carbonyl)pyrrolidin-1-yl)-3,3-dimethyl-1-oxobutan-2-yl)carbamoyl)benzo[b]thiophen-5-yl)difluoromethyl)phosphonic acid]			DC50 [1]: > 0.3 µM
CC(C)(C)[C@H](NC(=O)c1cc2cc(C(F)(F)P(=O)(O)O)ccc2s1)C(=O)N1Cc2cc(OCC(=O)NCCCCCC#Cc3ccc4c(c3)C(=O)N(C3CCC(=O)NC3=O)C4=O)ccc2C[C@H]1C(=O)N1CCC[C@H](c2ccccc2)C1 (stereo partly drawn) [Compound 558, ((2-(((2S)-1-((3S)-7-(2-((7-(2-(2,6-dioxopiperidin-3-yl)-1,3-dioxoisoindolin-5-yl)hept-6-yn-1-yl)amino)-2-oxoethoxy)-3-((R)-3-phenylpiperidine-1-carbonyl)-3,4-dihydroisoquinolin-2(1H)-yl)-3,3-dimethyl-1-oxobutan-2-yl)carbamoyl)benzo[b]thiophen-5-yl)difluoromethyl)phosphonic acid]	> 10		
CC(C)(C)[C@H](NC(=O)c1cc2cc(C(F)(F)P(=O)(O)O)ccc2s1)C(=O)N1C[C@@H](OCCCCCCC#Cc2cccc3c2CN(C2CCC(=O)NC2=O)C3=O)C[C@H]1C(=O)N1CCOC(c2ccc(F)c(Cl)c2)C1 (stereo partly drawn) [Compound 608, ((2-(((2S)-1-((2S,4S)-2-(2-(3-chloro-4-fluorophenyl)morpholine-4-carbonyl)-4-((8-(2-(2,6-dioxopiperidin-3-yl)-1-oxoisoindolin-4-yl)oct-7-yn-1-yl)oxy)pyrrolidin-1-yl)-3,3-dimethyl-1-oxobutan-2-yl)carbamoyl)benzo[b]thiophen-5-yl)difluoromethyl)phosphonic acid]			DC50 [1]: > 0.3 µM
Cc1ncsc1-c1ccc([C@H](C)NC(=O)[C@@H]2C[C@@H](O)CN2C(=O)[C@@H](NC(=O)CCCCCNC(=O)COc2ccc3c(c2)CN(C(=O)[C@@H](NC(=O)c2cc4cc(C(F)(F)P(=O)(O)O)ccc4s2)C(C)(C)C)[C@H](C(=O)N2CCC[C@H](c4ccccc4)C2)C3)C(C)(C)C)cc1 [Compound 474, (difluoro(2-(((S)-1-((S)-7-(2-((6-(((S)-1-((2S,4R)-4-hydroxy-2-(((S)-1-(4-(4-methylthiazol-5-yl)phenyl)ethyl)carbamoyl)pyrrolidin-1-yl)-3,3-dimethyl-1-oxobutan-2-yl)amino)-6-oxohexyl)amino)-2-oxoethoxy)-3-((R)-3-phenylpiperidine-1-carbonyl)-3,4-dihydroisoquinolin-2(1H)-yl)-3,3-dimethyl-1-oxobutan-2-yl)carbamoyl)benzo[b]thiophen-5-yl)methyl)phosphonic acid]	> 10		
Cc1ncsc1-c1ccc([C@H](C)NC(=O)[C@@H]2C[C@@H](O)CN2C(=O)[C@H](NC(=O)CNC(=O)CO[C@H]2C[C@@H](C(=O)N3CCO[C@H](c4ccccc4)C3)N(C(=O)[C@@H](NC(=O)c3cc4cc(C(F)(F)P(=O)(O)O)ccc4s3)C(C)(C)C)C2)C(C)(C)C)cc1 [Compound 425, (difluoro(2-(((S)-1-((2S,4S)-4-(2-((2-(((R)-1-((2S,4R)-4-hydroxy-2-(((S)-1-(4-(4-methylthiazol-5-yl)phenyl)ethyl)carbamoyl)pyrrolidin-1-yl)-3,3-dimethyl-1-oxobutan-2-yl)amino)-2-oxoethyl)amino)-2-oxoethoxy)-2-((R)-2-phenylmorpholine-4-carbonyl)pyrrolidin-1-yl)-3,3-dimethyl-1-oxobutan-2-yl)carbamoyl)benzo[b]thiophen-5-yl)methyl)phosphonic acid]	> 10	> 10	
Cc1ncsc1-c1ccc(CNC(=O)[C@@H]2C[C@@H](O)CN2C(=O)[C@@H](NC(=O)CCCCCCCCNC(=O)CCN(C(=O)[C@@H]2CCCN2C(=O)[C@@H](NC(=O)c2cc3cc(C(F)(F)P(=O)(O)O)ccc3s2)C(C)(C)C)c2ccc(Br)cc2)C(C)(C)C)cc1 [Compound 397] ({Benzothienyl2CO(5-CF2PO3H2)}-[Tle]P[βAla(N-(4-Br-phenyl))][NH(CH2)8CO][Tle][Hyp]-{NHBn(4-(4-Me-thiazol-5-yl))})			DC50 [4]: > 10 µM
O=C1CCC(N2Cc3cc(C#CCCCCCC(=O)N4CC[C@H]5CC[C@@H](C(=O)N6CC[C@@H](c7ccccc7)C6)N5C(=O)[C@@H](NC(=O)c5cc6cc(C(F)(F)P(=O)(O)O)ccc6s5)C4)ccc3C2=O)C(=O)N1 (stereo partly drawn) [Compound 574, ((2-(((5S,8S,10aR)-3-(8-(2-(2,6-dioxopiperidin-3-yl)-1-oxoisoindolin-5-yl)oct-7-ynoyl)-6-oxo-8-((S)-3-phenylpyrrolidine-1-carbonyl)decahydropyrrolo[1,2-a][1,5]diazocin-5-yl)carbamoyl)benzo[b]thiophen-5-yl)difluoromethyl)phosphonic acid]	> 10	> 10	
Cc1ncsc1-c1ccc([C@H](C)NC(=O)[C@@H]2C[C@@H](O)CN2C(=O)[C@@H](NC(=O)CCCCCCCNC(=O)CO[C@H]2C[C@@H](C(=O)N3CCO[C@H](c4ccccc4)C3)N(C(=O)[C@@H](NC(=O)c3cc4cc(C(F)(F)P(=O)(O)O)ccc4s3)C(C)(C)C)C2)C(C)(C)C)cc1 [Compound 431, (difluoro(2-(((S)-1-((2S,4S)-4-(2-((8-(((S)-1-((2S,4R)-4-hydroxy-2-(((S)-1-(4-(4-methylthiazol-5-yl)phenyl)ethyl)carbamoyl)pyrrolidin-1-yl)-3,3-dimethyl-1-oxobutan-2-yl)amino)-8-oxooctyl)amino)-2-oxoethoxy)-2-((R)-2-phenylmorpholine-4-carbonyl)pyrrolidin-1-yl)-3,3-dimethyl-1-oxobutan-2-yl)carbamoyl)benzo[b]thiophen-5-yl)methyl)phosphonic acid]	> 10	> 10	
CC(C)(C)[C@H](NC(=O)c1cc2cc(C(F)(F)P(=O)(O)O)ccc2s1)C(=O)N1C[C@@H](OCCN2CCC(Nc3cccc4c3CN(C3CCC(=O)NC3=O)C4=O)CC2)C[C@H]1C(=O)N1CCO[C@H](c2ccccc2)C1 (stereo partly drawn) [Compound 605, ((2-(((2S)-1-((2S,4S)-4-(2-(4-((2-(2,6-dioxopiperidin-3-yl)-1-oxoisoindolin-4-yl)amino)piperidin-1-yl)ethoxy)-2-((R)-2-phenylmorpholine-4-carbonyl)pyrrolidin-1-yl)-3,3-dimethyl-1-oxobutan-2-yl)carbamoyl)benzo[b]thiophen-5-yl)difluoromethyl)phosphonic acid]			DC50 [1]: > 0.3 µM
Cc1ncsc1-c1ccc(CNC(=O)[C@@H]2C[C@@H](O)CN2C(=O)[C@@H](NC(=O)CCCCCCNC(=O)CCN(C(=O)[C@@H]2CCCN2C(=O)[C@@H](NC(=O)c2cc3cc(C(F)(F)P(=O)(O)O)ccc3s2)C(C)(C)C)c2ccc(Br)cc2)C(C)(C)C)cc1 [Compound 399] ({Benzothienyl2CO(5-CF2PO3H2)}-[Tle]P[βAla(N-(4-Br-phenyl))][Ahp][Tle][Hyp]-{NHBn(4-(4-Me-thiazol-5-yl))})			DC50 [4]: > 10 µM
Cc1ncsc1-c1ccc([C@H](C)NC(=O)[C@@H]2C[C@@H](O)CN2C(=O)[C@@H](NC(=O)CCCCCNC(=O)COc2ccc3c(c2)CN(C(=O)[C@@H](NC(=O)c2cc4cc(C(F)(F)P(=O)(O)O)ccc4s2)C(C)(C)C)[C@H](C(=O)N2CCO[C@H](c4ccccc4)C2)C3)C(C)(C)C)cc1 [Compound 465, (difluoro(2-(((S)-1-((S)-7-(2-((6-(((S)-1-((2S,4R)-4-hydroxy-2-(((S)-1-(4-(4-methylthiazol-5-yl)phenyl)ethyl)carbamoyl)pyrrolidin-1-yl)-3,3-dimethyl-1-oxobutan-2-yl)amino)-6-oxohexyl)amino)-2-oxoethoxy)-3-((R)-2-phenylmorpholine-4-carbonyl)-3,4-dihydroisoquinolin-2(1H)-yl)-3,3-dimethyl-1-oxobutan-2-yl)carbamoyl)benzo[b]thiophen-5-yl)methyl)phosphonic acid]	> 10	> 10	

From US20230295197A1, “STAT5 and STAT6 Degraders and Uses Thereof” (REGENTS OF THE UNIVERSITY OF MICHICAN, priority 2022, published 2023)
